From US20070218456A1, “CELLULAR ASSAYS FOR SIGNALING RECEPTORS” (INVITROGEN CORPORATION, priority 2006, published 2007) come the findings set out here.

The target in experiment [1] is T1, GPR23 (Homo sapiens, UniProt Q99677). In words: LPA response of stably transfected GPR23-CRE-bla HEK pool. The experiment is classed as cell-based. The arrangement: expressed in transfected cells; host or cells: CellSensor CRE-bla HEK (Invitrogen K1112), stably selected pool. As to the method: Assay construction continued in the NFAT-bla and CRE-bla, HEK and Jurkat CellSensor™ cell lines. These cell lines were taken to the point of stably selected pools at which point they were tested for a response to LPA. Only the stably transfected GPR23-CRE-bla HEK pool gave a response to LPA. The response was <1.5 fold but reproducible.
T1 sequence (Q99677 whole entry): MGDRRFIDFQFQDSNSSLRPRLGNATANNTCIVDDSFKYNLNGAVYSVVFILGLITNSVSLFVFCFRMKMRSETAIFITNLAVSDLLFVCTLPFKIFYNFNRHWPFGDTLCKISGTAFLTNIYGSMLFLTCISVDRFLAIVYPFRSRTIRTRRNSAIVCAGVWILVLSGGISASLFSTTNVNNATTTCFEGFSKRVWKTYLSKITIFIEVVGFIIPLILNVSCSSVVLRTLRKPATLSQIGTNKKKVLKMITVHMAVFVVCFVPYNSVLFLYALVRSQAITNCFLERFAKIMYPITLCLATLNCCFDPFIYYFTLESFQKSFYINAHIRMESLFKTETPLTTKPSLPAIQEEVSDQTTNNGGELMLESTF

The subject of experiment [2] is hGPR23. The experiment can be described thus: LPA dose response on hGPR23-CRE-bla CHO-K1 selected pool. The experiment is classed as cell-based, human. To be noted: 5 hrs stimulation. From the text: An attempt was made to develop a GPR23 assay by stably expressing a human GPR23 (hGPR23) in a CRE-bla CHO-K1 cell line. The CRE-bla CHO-K1 cell line has a non-GPR23 specific endogenous response to LPA (see Example 18), but by adding the human GPR23 to the cells it could have been possible to increase the LPA responsiveness of these cells or create a constitutively active cell line that could be used to screen for inverse agonists of the hGPR23 receptor. The hGPR23 expression plasmid was transfected into the CRE-bla CHO-K1 cell line. Lipofectamine 2000 (Invitrogen) was used at a ratio of 0.4 ug of DNA per every uL of Lipofectamine 2000 following manufacturer's directions.
(§1) A stable pool was selected using Zeocin. LPA dose response on the hGPR23-CRE-bla CHO-K1 selected pool and CRE-bla CHO-K1 cell line was performed. The cells were plated at 50,000 cells per well in a 96 well assay plate in OptiMEM+0.5% FBS and placed at 37° C. 5% CO2 overnight. The cells were then stimulated with a four fold dilution series of LPA in DMEM+0.1% BSA for 5 hrs. and loaded with substrate for 2 hrs.

Experiment [3] concerns CRE-bla CHO-K1 cell line. The experiment can be described thus: LPA dose response on CRE-bla CHO-K1 cell line. The conditions noted are these: CRE-bla CHO cells; 5 hrs stimulation. The experiment is classed as cell-based, Chinese hamster. On the procedure: as §1
Experiment [4] deals with GPR23. In words: LPA responsiveness of T-REx-GPR23 CRE-bla-CHO-K1 clone H6-E2. The experiment is classed as cell-based, human. To be noted: un-induced cells. As to the method:
(§2) The cells were plated at 20,000 cells per well in a 384 well black walled clear bottom tissue culture assay plate in complete media (DMEM+10% FBS). The plates were then placed at 37° C. 5% CO2 for 6 hrs to allow the cells to attach to the assay plate. The complete media was then removed from the plate and replaced with assay media (DMEM+0.1% BSA) containing 100 ng/ml pertussis toxin and 0.5% DMSO, with or without 10 μg/ml doxycycline. The plates were placed at 37° C. 5% CO2 for 16 hrs to allow the induced expression of the GPR23 receptor. The cells were then stimulated for five hours with a four fold dilution series of LPA starting at 1 μM. The cells were then loaded with LiveBLAzer™-FRET B/G substrate (2 μM) containing solution D for 2 hrs.

Experiment [5] concerns the target T1, GPR23. The experiment is described as above. The experiment is classed as cell-based. Set-up: expressed in transfected cells; host or cells: CHO-K1 with tet repressor (T-REx); clones E1 and H6, later CRE-bla subclone H6-E2. As to the method:
as §2

In experiment [6] the test system is GPR23. In words: Perkin Elmer LANCE cAMP assay on T-REx-GPR23-CHO-K1 clones. The conditions noted are these: un-induced, read-out: LPA EC50 (cAMP). The experiment is classed as cell-based, human. As to the method:
(§3) Two inducible T-RExTM-GPR23-CHO-K1 clones and a parental control (T-RExTM-CHO-K1) were tested using the Perkin Elmer LANCE cAMP assay. The cells were serum starved and induced in growth medium +/-1 μg/ml tetracycline +100 ng/ml pertussis toxin without FBS for 24 hrs prior to the assay. The cells were then harvested using […] assayed for LPA responsiveness using the Perkin Elmer Lance assay according to the manufacture's instructions.
A general note: In TR-FRET formats the signal depends on donor and acceptor labels being close together.

In experiment [7] the test system is Jurkat cells. In words: Transient transfection assay, NFAT-bla and CRE-bla Jurkat, response to LPA. The experiment is classed as cell-based. The conditions noted are these: 10 μM LPA. From the text: (§4) To begin development of a GPR23 assay in GeneBLAzer® CellSensor™ cell lines (Invitrogen), GPR23 was first tested in a transient transfection assay in the NFAT-bla HEK (Catalog# K1179, Invitrogen), the CRE-bla HEK (Catalog# K1112, Invitrogen), the NFAT-bla CHO-K1 (Catalog# K1078, Invitrogen), the CRE-bla CHO-K1 (Catalog# K1129, Invitrogen), the NFAT-bla Jurkat CellSensor™ cell lines (Catalog# K1077, Invitrogen) and the CRE-bla Jurkat CellSensor™ cell lines (Catalog# K1134, Invitrogen). The hGPR23 expression plasmid was transfected into the cell lines. Lipofectamine 2000 (Invitrogen) was used at a ratio of 0.4 ug of DNA per every uL of Lipofectamine 2000 following manufacturer's directions. After 48 hours the cells were assayed for a response to 10 μM LPA.

For experiment [8], the system named is T-REx™-CHO-K1. In words: Perkin Elmer LANCE cAMP assay on parental T-REx-CHO-K1. The experiment is classed as cell-based, Chinese hamster. To be noted: read-out: LPA EC50 (cAMP). As to the method:
as §3

Experiment [9] has as its system NFAT and CRE CHO-K1 cell lines. In words: Transient transfection assay, NFAT-bla and CRE-bla CHO-K1, response to LPA. The experiment is classed as cell-based, Chinese hamster. The conditions noted are these: 10 μM LPA; absence of transfected GPR23.
From the text: as §4

In experiment [10] the test system is HEK cells. The experiment can be described thus: Transient transfection assay, NFAT-bla and CRE-bla HEK, response to LPA. The experiment is classed as cell-based, human. The conditions noted are these: 10 μM LPA.
From the text: as §4

Experiment [11] concerns the target T1, GPR23. The experiment can be described thus: Perkin Elmer LANCE cAMP assay on T-REx-GPR23-CHO-K1 clones. The experiment is classed as cell-based. To be noted: read-out: LPA EC50 (cAMP). Set-up: expressed in transfected cells; host or cells: CHO-K1 with tet repressor (T-REx); clones E1 and H6, later CRE-bla subclone H6-E2. As to the method: as §3

Like-named read-outs stand apart in the source and are kept apart here. A value given as a limit tells only on which side of the number the result lay.

What is called EC50 is the concentration needed to bring the measured effect to its halfway point. Take “1 or 2-acyl-sn-glycero-3-phosphate [LPA]”: the “response to LPA” value is on record as under 1.5 fold in experiment [1]; “no response” in experiment [7] (GPR23 transfected cells); “no endogenous response” in experiment [7] (endogenous (untransfected)); “positive response” in [9]; “only a small response” in experiment [10] (GPR23 transfected CRE-bla HEK cell line); “no endogenous response” in experiment [10] (endogenous (untransfected)). Moreover, the EC50 in experiment [2] is 258 nM; in experiment [3], 239 nM; in experiment [5] (induced cells (10 μg/ml doxycycline, 16 hrs), LPA five hours) it was 2.3 nM; in [6] (E1 clone), 2000 nM; in experiment [6] (H6 clone) it was 1500 nM; in experiment [8] (parent induced (1 μg/ml tetracycline)), 915 nM. Also, the EC50 was found to be 5000 nM in experiment [8] (parent, un-induced); 30.3 nM in experiment [11] (E1 clone induced (1 μg/ml tetracycline)); 13.8 nM in experiment [11] (H6 induced (1 μg/ml tetracycline)). Moreover, the figures for the “response of the cells to LPA” value in [4] and in experiment [5] (induced cells) were 9 fold and 2.3 fold, respectively.
